Test results reported in patent publication US8217066B2, “Compounds as lysophosphatidic acid receptor antagonists” (Amira Pharmaceuticals, Inc., priority 2009, dated 2012).
pIC50: −log10 of the molar value.

test system: A2058 human melanoma cells; assay: LPA1 chemotaxis assay; format: cell-based; conditions: 100 nM LPA, read-out: inhibition of LPA-driven chemotaxis, IC50
Protocol: Chemotaxis of the A2058 human melanoma cells was measured using the Neuroprobe ChemoTx® System plates (8 μm pore size, 5.7 mm diameter sites). The filter sites were coated with 0.001% fibronectin (Sigma) in 20 mM Hepes, pH 7.4 and allowed to dry. A2058 cells were serum-starved for 24 hours, then harvested with Cell Stripper and resuspended in DMEM containing 0.1% fatty-acid-free bovine serum albumin (BSA) to a concentration of 1×10^6/ml. Cells were mixed with an equal volume of test compound (2×) in DMEM containing 0.1% fatty-acid-free BSA and incubated at 37° C. for 15 minutes. LPA (100 nM in DMEM containing 0.1% fatty-acid-free BSA) or vehicle was added to each well of the lower chamber and 50 μl of the cell suspension/test compound mix was applied to the upper portion of the ChemoTx plate. Plates were incubated at 37° C. for three hours and then the cells removed from the upper portion by rinsing with PBS and scraping. The filter was dried then stained with HEMA 3 Staining System (Fisher Scientific). The absorbance of the filter was read at 590 nm and IC50s were determined using Symyx Assay Explorer.

SMILES	pIC50
Cc1noc(-c2ccc(-c3ccc(C4(C(=O)O)CC4)cc3)cc2)c1NC(C)CCc1ccccc1 (stereo not drawn) [Compound 4, 1-{4′-[3-Methyl-4-(1-methyl-3-phenyl-propylamino)-isoxazol-5-yl]-biphenyl-4-yl}-cyclopropanecarboxylic acid]	> 7.00
Cc1noc(-c2ccc(-c3ccc(C4(C(=O)O)CC4)cc3)cc2)c1NC(C)CCc1cccc(Cl)c1 (single isomer, unassigned) [Compound 57, 1-(4′-{4-[3-(3-Chloro-phenyl)-1-methyl-propylamino]-3-methyl-isoxazol-5-yl}-biphenyl-4-yl)-cyclopropanecarboxylic acid]	> 7.00
Cc1noc(-c2ccc(-c3ccc(C4(C(=O)O)CC4)cc3)cc2)c1NC(C)CCc1ccccc1 (single isomer, unassigned) [Compound 51, 1-{4′-[3-Methyl-4-(1-methyl-3-phenyl-propylamino)-isoxazol-5-yl]-biphenyl-4-yl}-cyclopropanecarboxylic acid]	> 7.00

molecular target: T1, human LPA1 (Homo sapiens, UniProt Q92633); assay: LPA1 calcium flux assay (HLPA1 Ca Flux); format: cell-based; conditions: CHO cells stably expressing human LPA1, stimulated with 10 nM LPA
T1 construct: the full-length cDNA for human LPA1 was obtained by PCR of the reverse transcription reaction; expressed in transfected cells
T1 sequence (Q92633 whole entry): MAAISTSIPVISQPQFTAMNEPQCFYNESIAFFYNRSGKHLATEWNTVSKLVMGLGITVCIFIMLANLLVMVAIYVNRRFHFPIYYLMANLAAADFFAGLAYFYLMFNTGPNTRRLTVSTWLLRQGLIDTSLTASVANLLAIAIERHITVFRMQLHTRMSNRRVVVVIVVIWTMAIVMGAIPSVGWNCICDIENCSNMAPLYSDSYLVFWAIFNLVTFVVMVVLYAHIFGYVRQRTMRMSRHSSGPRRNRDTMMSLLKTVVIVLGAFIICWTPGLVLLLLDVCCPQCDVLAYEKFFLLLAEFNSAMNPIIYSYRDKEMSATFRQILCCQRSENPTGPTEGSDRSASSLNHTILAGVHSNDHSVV
Protocol: A 1.1 kb cDNA encoding the human LPA1 receptor was cloned from human lung. Human lung RNA (Clontech Laboratories, Inc. USA) was reverse transcribed using the RETROscript kit (Ambion, Inc.) and the full-length cDNA for human LPA1 was obtained by PCR of the reverse transcription reaction. The nucleotide sequence of the cloned human LPA1 was determined by sequencing and confirmed to be identical to the published human LPA1 sequence (An et al. Biochem. Biophys. Res. Commun. 231:619 (1997). The cDNA was cloned into the pcDNA5/FRT expression plasmid and transfected in CHO cells using lipofectamine 2000 (Invitrogen Corp., USA). Clones stably expressing human LPA1 were selected using hygromycin and identified as cells that show Ca-influx in response to LPA.
Human LPA1 or LPA3 expressing CHO cells are seeded at 20,000-45,000 cells per well in a 96-well poly-D-lysine coated plate one or two days before the assay. Prior to the assay, the cells are washed once with PBS and then cultured in serum-free media overnight. On the day of the assay, a calcium indicator dye (Calcium 4, Molecular Devices) in assay buffer (HBSS with Ca^2+ and Mg^2+ and containing 20 mM Hepes and 0.3% fatty-acid free human serum albumin) is added to each well and incubation continued for 1 hour at 37° C. […] of test compounds in 2.5% DMSO are added to the cells and incubation continued at room temperature for 30 minutes. Cells are the stimulated by the addition of 10 nM LPA and intracellular Ca^2+ measured using the Flexstation 3 (Molecular Devices). IC50s are determined using Graphpad prism analysis of drug titration curves.

SMILES	pIC50
Cc1noc(-c2ccc(-c3ccc(C4(C(=O)O)CC4)cc3)cc2)c1NC(C)CCc1cccc(C(F)(F)F)c1 (stereo not drawn) [Compound 31, 1-(4′-{3-Methyl-4-[1-methyl-3-(3-trifluoromethyl-phenyl)-propylamino]-isoxazol-5-yl}-biphenyl-4-yl)-cyclopropanecarboxylic acid]	> 6.52
Cc1noc(-c2ccc(-c3ccc(C4(C(=O)O)CC4)cc3)cc2)c1CCOCc1cccc(Cl)c1 [Compound 16, 1-(4′-{4-[2-(3-Chloro-benzyloxy)-ethyl]-3-methyl-isoxazol-5-yl}-biphenyl-4-yl)-cyclopropanecarboxylic acid]	> 6.52
Cc1noc(-c2ccc(-c3ccc(C4(C(=O)O)CC4)cc3)cc2)c1CCOCc1ccc(Cl)cc1 [Compound 17, 1-(4′-{4-[2-(4-Chloro-benzyloxy)-ethyl]-3-methyl-isoxazol-5-yl}-biphenyl-4-yl)-cyclopropanecarboxylic acid]	> 6.52
Cc1noc(-c2ccc(-c3ccc(C4(C(=O)O)CC4)cc3)cc2)c1C(O)CCCc1cccc(C(F)(F)F)c1 (stereo not drawn) [Compound 36, 1-(4′-{4-[1-Hydroxy-4-(3-trifluoromethyl-phenyl)-butyl]-3-methyl-isoxazol-5-yl}-biphenyl-4-yl)-cyclopropanecarboxylic acid]	> 6.52
Cc1noc(-c2ccc(-c3ccc(C4(C(=O)O)CC4)cc3)cc2)c1COC(C)Cc1ccccc1 (stereo not drawn) [Compound 9, 1-{4′-[3-Methyl-4-(1-methyl-2-phenyl-ethoxymethyl)-isoxazol-5-yl]-biphenyl-4-yl}-cyclopropanecarboxylic acid]	> 6.52
CCC(CCc1ccccc1)Nc1c(C)noc1-c1ccc(-c2ccc(C3(C(=O)O)CC3)cc2)cc1 (stereo not drawn) [Compound 66, 1-{4′-[4-(1-Ethyl-3-phenyl-propylamino)-3-methyl-isoxazol-5-yl]-biphenyl-4-yl}-cyclopropanecarboxylic acid]	> 6.52
Cc1noc(-c2ccc(-c3ccc(C4(C(=O)O)CC4)cc3)cc2)c1CCSCc1ccccc1 [Compound 18, 1-{4′-[4-(2-Benzylsulfanyl-ethyl)-3-methyl-isoxazol-5-yl]-biphenyl-4-yl}-cyclopropanecarboxylic acid]	> 6.52
Cc1noc(-c2ccc(-c3ccc(C4(C(=O)O)CC4)cc3)cc2)c1NC(C)CCc1c(F)cccc1Cl (stereo not drawn) [Compound 55, 1-(4′-{4-[3-(2-Chloro-6-fluoro-phenyl)-1-methyl-propylamino]-3-methyl-isoxazol-5-yl}-biphenyl-4-yl)-cyclopropanecarboxylic acid]	> 6.52
Cc1noc(-c2ccc(-c3ccc(C4(C(=O)O)CC4)cc3)cc2)c1COCC(C)c1ccccc1 (stereo not drawn) [Compound 11, 1-{4′-[3-Methyl-4-(2-phenyl-propoxymethyl)-isoxazol-5-yl]-biphenyl-4-yl}-cyclopropanecarboxylic acid]	> 6.52
Cc1noc(-c2ccc(-c3ccc(C4(C(=O)O)CC4)cc3)cc2)c1C(C)(O)CCCc1ccccc1 (stereo not drawn) [Compound 26, 1-{4′-[4-(1-Hydroxy-1-methyl-4-phenyl-butyl)-3-methyl-isoxazol-5-yl]-biphenyl-4-yl}-cyclopropanecarboxylic acid]	> 6.52
Cc1noc(-c2ccc(-c3ccc(C4(C(=O)O)CC4)cc3)cc2)c1CCNCc1ccccc1 [Compound 28, 1-{4′-[4-(2-Benzylamino-ethyl)-3-methyl-isoxazol-5-yl]-biphenyl-4-yl}-cyclopropanecarboxylic acid]	6.00 to 6.52
Cc1noc(-c2ccc(-c3ccc(C4(C(=O)O)CC4)cc3)cc2)c1CSCCc1ccccc1 [Compound 10, 1-[4′-(3-Methyl-4-phenethylsulfanylmethyl-isoxazol-5-yl)-biphenyl-4-yl]-cyclopropanecarboxylic acid]	> 6.52
Cc1noc(-c2ccc(-c3ccc(C4(C(=O)O)CC4)cc3)cc2)c1CNCCc1ccccc1 [Compound 5, 1-{4′-[3-Methyl-4-(phenethylamino-methyl)-isoxazol-5-yl]-biphenyl-4-yl}-cyclopropanecarboxylic acid]	6.00 to 6.52
Cc1noc(-c2ccc(-c3ccc(C4(C(=O)O)CC4)cc3)cc2)c1C(O)CCc1cccc(C(F)(F)F)c1 (stereo not drawn) [Compound 35, 1-(4′-{4-[1-Hydroxy-3-(3-trifluoromethyl-phenyl)-propyl]-3-methyl-isoxazol-5-yl}-biphenyl-4-yl)-cyclopropanecarboxylic acid]	> 6.52
Cc1noc(-c2ccc(-c3ccc(C4(C(=O)O)CC4)cc3)cc2)c1C(O)CCCc1ccc(C(F)(F)F)cc1 (stereo not drawn) [Compound 39, 1-(4′-{4-[1-Hydroxy-4-(4-trifluoromethyl-phenyl)-butyl]-3-methyl-isoxazol-5-yl}-biphenyl-4-yl)-cyclopropanecarboxylic acid]	> 6.52
Cc1noc(-c2ccc(-c3ccc(C4(C(=O)O)CC4)cc3)cc2)c1C(O)CC(C)(C)Cc1ccccc1 (stereo not drawn) [Compound 70, 1-{4′-[4-(1-Hydroxy-3,3-dimethyl-4-phenyl-butyl)-3-methyl-isoxazol-5-yl]-biphenyl-4-yl}-cyclopropanecarboxylic acid]	> 6.52
Cc1noc(-c2ccc(-c3ccc(C4(C(=O)O)CC4)cc3)cc2)c1CCOC(C)c1ccccc1 (stereo not drawn) [Compound 14, 1-(4′-{3-Methyl-4-[2-(1-phenyl-ethoxy)-ethyl]-isoxazol-5-yl}-biphenyl-4-yl)-cyclopropanecarboxylic acid]	> 6.52
Cc1noc(-c2ccc(-c3ccc(C4(C(=O)O)CC4)cc3)cc2)c1C(F)(F)CCCc1ccccc1 [Compound 46, 1-{4′-[4-(1,1-Difluoro-4-phenyl-butyl)-3-methyl-isoxazol-5-yl]-biphenyl-4-yl}-cyclopropanecarboxylic acid]	4.30 to 6.00
Cc1noc(-c2ccc(-c3ccc(C4(C(=O)O)CC4)cc3)cc2)c1C(O)C(C)CCc1ccccc1 (stereo not drawn) [Compound 44, 1-{4′-[4-(1-Hydroxy-2-methyl-4-phenyl-butyl)-3-methyl-isoxazol-5-yl]-biphenyl-4-yl}-cyclopropanecarboxylic acid]	> 6.52
Cc1noc(-c2ccc(-c3ccc(C4(C(=O)O)CC4)cc3)cc2)c1CCCCc1ccccc1 [Compound 6, 1-{4′-[3-Methyl-4-(4-phenyl-butyl)-isoxazol-5-yl]-biphenyl-4-yl}-cyclopropanecarboxylic acid]	> 6.52
Cc1noc(-c2ccc(-c3ccc(C4(C(=O)O)CC4)cc3)cc2)c1CC(O)CCc1ccccc1 (stereo not drawn) [Compound 20, 1-{4′-[4-(2-Hydroxy-4-phenyl-butyl)-3-methyl-isoxazol-5-yl]-biphenyl-4-yl}-cyclopropanecarboxylic acid]	> 6.52
Cc1noc(-c2ccc(-c3ccc(C4(C(=O)NS(C)(=O)=O)CC4)cc3)cc2)c1C(O)COCCc1ccccc1 (stereo not drawn) [Compound 74, N-(1-{4′-[4-(1-Hydroxy-2-phenethyloxy-ethyl)-3-methyl-isoxazol-5-yl]-biphenyl-4-yl}-cyclopropanecarbonyl)-methanesulfonamide]	> 6.52
Cc1noc(-c2ccc(-c3ccc(C4(C(=O)NS(=O)(=O)C5CC5)CC4)cc3)cc2)c1C(O)CCCc1ccccc1 (stereo not drawn) [Compound 79]	> 6.52
Cc1noc(-c2ccc(-c3ccc(C4(C(=O)O)CC4)cc3)cc2)c1C(O)CCc1ccccc1 (stereo not drawn) [Compound 34, 1-{4′-[4-(1-Hydroxy-3-phenyl-propyl)-3-methyl-isoxazol-5-yl]-biphenyl-4-yl}-cyclopropanecarboxylic acid]	> 6.52
